The Kinase Knowledgebase extract (Sharma et al. 2016)

What was measured:
PIK3CB (Human) = PIK3CB (Human) (UniProt P42338); experiment: Enzyme Assay
PIK3CG (human) = PIK3CG (human) (UniProt P48736); experiment: Enzyme Assay
PIK3CD (Human) = PIK3CD (Human) (UniProt O00329); experiment: Cell-Based Assay; conditions: raji
PIK3CD (Human), sequence (O00329 whole entry, looked up): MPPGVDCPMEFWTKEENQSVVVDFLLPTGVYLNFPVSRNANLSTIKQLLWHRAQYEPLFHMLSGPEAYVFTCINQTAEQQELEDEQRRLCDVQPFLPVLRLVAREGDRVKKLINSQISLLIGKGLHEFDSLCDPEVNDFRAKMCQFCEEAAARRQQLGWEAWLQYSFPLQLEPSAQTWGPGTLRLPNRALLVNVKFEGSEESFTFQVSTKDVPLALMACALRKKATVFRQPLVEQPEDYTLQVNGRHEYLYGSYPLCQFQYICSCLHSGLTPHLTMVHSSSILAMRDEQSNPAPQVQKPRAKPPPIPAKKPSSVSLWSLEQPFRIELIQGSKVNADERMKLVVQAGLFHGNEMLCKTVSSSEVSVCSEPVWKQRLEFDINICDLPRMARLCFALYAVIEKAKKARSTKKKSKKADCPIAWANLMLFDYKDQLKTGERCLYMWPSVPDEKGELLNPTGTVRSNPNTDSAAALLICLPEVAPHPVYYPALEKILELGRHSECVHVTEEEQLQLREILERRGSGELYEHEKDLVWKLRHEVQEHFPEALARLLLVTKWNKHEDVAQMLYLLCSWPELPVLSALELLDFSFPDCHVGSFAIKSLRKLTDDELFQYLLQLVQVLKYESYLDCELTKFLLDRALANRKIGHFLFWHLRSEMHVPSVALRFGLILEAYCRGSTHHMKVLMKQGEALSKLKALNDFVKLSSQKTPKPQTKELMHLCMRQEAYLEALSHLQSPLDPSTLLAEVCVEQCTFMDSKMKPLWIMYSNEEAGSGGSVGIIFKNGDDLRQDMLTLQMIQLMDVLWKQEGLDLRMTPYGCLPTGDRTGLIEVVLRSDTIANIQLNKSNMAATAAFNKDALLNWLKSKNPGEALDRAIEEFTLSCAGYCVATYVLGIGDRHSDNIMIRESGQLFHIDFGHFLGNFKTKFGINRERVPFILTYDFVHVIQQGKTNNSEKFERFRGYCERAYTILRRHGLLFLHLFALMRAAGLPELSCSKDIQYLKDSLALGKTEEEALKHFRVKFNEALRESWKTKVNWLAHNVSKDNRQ

PIK3CG (human), sequence (P48736 whole entry, looked up): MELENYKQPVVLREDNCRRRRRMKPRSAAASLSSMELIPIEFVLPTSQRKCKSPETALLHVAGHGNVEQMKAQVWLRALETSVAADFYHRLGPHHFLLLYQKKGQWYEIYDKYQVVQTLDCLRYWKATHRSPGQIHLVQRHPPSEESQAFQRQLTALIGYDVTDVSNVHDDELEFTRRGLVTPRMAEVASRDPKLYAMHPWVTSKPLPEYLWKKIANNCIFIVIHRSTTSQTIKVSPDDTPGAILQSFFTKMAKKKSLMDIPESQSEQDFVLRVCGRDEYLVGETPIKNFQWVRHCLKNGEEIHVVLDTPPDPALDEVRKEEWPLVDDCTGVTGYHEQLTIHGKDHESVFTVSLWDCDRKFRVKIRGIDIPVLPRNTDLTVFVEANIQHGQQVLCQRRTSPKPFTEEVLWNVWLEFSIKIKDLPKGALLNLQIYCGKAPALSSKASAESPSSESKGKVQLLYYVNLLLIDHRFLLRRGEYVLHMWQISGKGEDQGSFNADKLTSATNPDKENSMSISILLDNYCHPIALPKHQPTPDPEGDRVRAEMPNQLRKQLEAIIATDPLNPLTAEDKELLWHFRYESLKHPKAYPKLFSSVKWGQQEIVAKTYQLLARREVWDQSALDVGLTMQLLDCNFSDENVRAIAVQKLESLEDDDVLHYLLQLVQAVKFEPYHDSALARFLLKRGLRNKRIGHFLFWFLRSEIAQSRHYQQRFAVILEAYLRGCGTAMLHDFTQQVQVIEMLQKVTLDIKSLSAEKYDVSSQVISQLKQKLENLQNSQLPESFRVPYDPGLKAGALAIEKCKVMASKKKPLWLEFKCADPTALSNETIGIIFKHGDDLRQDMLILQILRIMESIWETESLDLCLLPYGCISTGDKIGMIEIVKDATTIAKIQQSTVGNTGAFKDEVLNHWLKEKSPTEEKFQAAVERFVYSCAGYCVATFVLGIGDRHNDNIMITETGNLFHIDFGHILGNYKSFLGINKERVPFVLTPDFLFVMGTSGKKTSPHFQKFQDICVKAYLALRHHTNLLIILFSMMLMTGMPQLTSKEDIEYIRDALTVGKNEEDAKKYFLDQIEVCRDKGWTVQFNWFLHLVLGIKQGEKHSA
PIK3CB (Human), sequence (P42338 whole entry, looked up): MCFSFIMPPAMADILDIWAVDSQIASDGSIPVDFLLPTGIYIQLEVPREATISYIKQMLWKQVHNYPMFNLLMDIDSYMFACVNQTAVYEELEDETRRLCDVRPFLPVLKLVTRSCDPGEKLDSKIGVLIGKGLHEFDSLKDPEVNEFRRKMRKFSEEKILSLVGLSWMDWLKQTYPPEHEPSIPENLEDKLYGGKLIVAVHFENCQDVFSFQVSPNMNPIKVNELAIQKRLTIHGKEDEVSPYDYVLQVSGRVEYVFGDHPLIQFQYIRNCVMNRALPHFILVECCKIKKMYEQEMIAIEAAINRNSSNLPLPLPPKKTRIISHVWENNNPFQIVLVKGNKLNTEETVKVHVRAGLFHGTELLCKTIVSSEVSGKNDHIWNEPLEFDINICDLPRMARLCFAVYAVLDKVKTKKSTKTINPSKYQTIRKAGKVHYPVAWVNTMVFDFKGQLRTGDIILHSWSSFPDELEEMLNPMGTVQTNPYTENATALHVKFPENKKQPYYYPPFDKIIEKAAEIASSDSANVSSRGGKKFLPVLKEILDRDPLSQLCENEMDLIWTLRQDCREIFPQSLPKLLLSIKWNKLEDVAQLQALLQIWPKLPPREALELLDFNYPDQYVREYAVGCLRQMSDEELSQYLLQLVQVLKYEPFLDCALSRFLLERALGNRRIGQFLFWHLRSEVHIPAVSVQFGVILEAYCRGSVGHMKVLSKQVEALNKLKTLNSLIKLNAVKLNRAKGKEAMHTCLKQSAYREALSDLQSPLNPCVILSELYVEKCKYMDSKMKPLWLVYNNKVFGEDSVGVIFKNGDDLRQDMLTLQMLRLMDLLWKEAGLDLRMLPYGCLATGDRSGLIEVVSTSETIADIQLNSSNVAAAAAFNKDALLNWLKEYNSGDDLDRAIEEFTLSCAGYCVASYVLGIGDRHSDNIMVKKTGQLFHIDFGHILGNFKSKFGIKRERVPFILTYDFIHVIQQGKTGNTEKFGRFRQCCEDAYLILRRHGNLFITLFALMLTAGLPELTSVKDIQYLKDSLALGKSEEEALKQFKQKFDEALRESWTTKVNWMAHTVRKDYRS

Structure (SMILES)	IC50 (PIK3CB (Human))	IC50 (PIK3CG (human))	IC50 (PIK3CD (Human))
C[C@H](NC(=O)c1c(N)nn2cccnc12)c1cc2cccc(C#CCN)c2c(=O)n1-c1ccccc1	–	100 to 1000 nM	100 to 1000 nM
C[C@H](NC(=O)c1c(N)nn2cccnc12)c1cc2cccc(-c3cccs3)c2c(=O)n1-c1ccccc1	–	100 to 1000 nM	100 to 1000 nM
C[C@H](NC(=O)c1c(N)nn2cccnc12)c1cc2cccc(C#CCNS(C)(=O)=O)c2c(=O)n1-c1ccccc1	–	100 to 1000 nM	100 to 1000 nM
C[C@H](NC(=O)c1c(N)nn2cccnc12)c1cc2cccc(C#CCCN)c2c(=O)n1-c1ccccc1	–	100 to 1000 nM	100 to 1000 nM
C[C@H](NC(=O)c1nc(-c2cccc(S(C)(=O)=O)c2)cnc1N)c1cc2cccc(Cl)c2c(=O)n1-c1ccccc1	–	100 to 1000 nM	100 to 1000 nM
COc1ccc(-c2cnc(N)c(C(=O)N[C@@H](C)c3cc4cccc(Cl)c4c(=O)n3-c3ccccc3)n2)cc1OC	–	100 to 1000 nM	100 to 1000 nM
COc1cc(-c2cccc3nc([C@H](C)NC(=O)c4c(N)nn5cccnc45)n(C4CC4)c(=O)c23)ccn1	–	–	100 to 1000 nM
C[C@H](NC(=O)c1c(N)nn2cccnc12)c1cc2cccc(Cl)c2c(=O)n1-c1ccc(F)c(F)c1	–	< 100 nM	100 to 1000 nM
C[C@H](NC(=O)c1cnn2cccnc12)c1cc2cccc(Cl)c2c(=O)n1-c1ccc(F)cc1	–	100 to 1000 nM	100 to 1000 nM
C[C@H](NC(=O)c1cnn2cccnc12)c1cc2cccc(C#CCNC(=O)[C@@H]3CCC(=O)N3)c2c(=O)n1-c1ccccc1	–	100 to 1000 nM	100 to 1000 nM
C[C@H](NC(=O)c1nc(-c2cccc(S(N)(=O)=O)c2)cnc1N)c1cc2cccc(Cl)c2c(=O)n1-c1ccccc1	100 to 1000 nM	100 to 1000 nM	100 to 1000 nM
CC(C)Oc1ccc(-c2cnc(N)c(C(=O)N[C@@H](C)c3cc4cccc(Cl)c4c(=O)n3-c3ccccc3)n2)cc1F	≥ 10000 nM	100 to 1000 nM	–
C[C@H](NC(=O)c1c(N)nn2cccnc12)c1cc2cccc(-c3ccn[nH]3)c2c(=O)n1-c1ccccc1	≥ 10000 nM	100 to 1000 nM	100 to 1000 nM
COc1cc(-c2cccc3cc([C@H](C)NC(=O)c4c(N)nn5cccnc45)n(-c4cccc(F)c4)c(=O)c23)ccn1	≥ 10000 nM	100 to 1000 nM	100 to 1000 nM
C[C@H](NC(=O)c1c(N)nn2cccnc12)c1cc2cccc(-c3ccccc3)c2c(=O)n1-c1ccccc1	≥ 10000 nM	100 to 1000 nM	100 to 1000 nM
CC(=O)NCC#Cc1cccc2cc([C@H](C)NC(=O)c3c(N)nn4cccnc34)n(-c3ccccc3)c(=O)c12	–	< 100 nM	< 100 nM
CC(=O)Nc1ccc(-c2cccc3cc([C@H](C)NC(=O)c4c(N)nn5cccnc45)n(-c4ccccc4)c(=O)c23)cc1	≥ 10000 nM	100 to 1000 nM	< 100 nM
CC(=O)Nc1ncc(-c2cccc3cc([C@H](C)NC(=O)c4c(N)nn5cccnc45)n(-c4ccccc4)c(=O)c23)s1	≥ 10000 nM	100 to 1000 nM	–
C[C@H](NC(=O)c1nc(-c2cccc(NS(=O)(=O)C3CC3)c2)cnc1N)c1cc2cccc(Cl)c2c(=O)n1-c1ccccc1	100 to 1000 nM	< 100 nM	< 100 nM
COc1ncc(-c2cccc3cc([C@H](C)NC(=O)c4c(N)nn5cccnc45)n(-c4ccccc4)c(=O)c23)cn1	–	100 to 1000 nM	< 100 nM
C[C@H](NC(=O)c1cncc2cccnc12)c1cc2cccc(C(F)(F)F)c2c(=O)n1-c1ccccc1	–	–	< 100 nM
C[C@H](NC(=O)c1c(N)nn2cccnc12)c1c(Br)c2cccc(F)c2c(=O)n1-c1ccccc1	–	100 to 1000 nM	–
C[C@H](NC(=O)c1nc(-c2cccc(S(=O)(=O)NC(C)(C)C)c2)cnc1N)c1cc2cccc(Cl)c2c(=O)n1-c1ccccc1	–	100 to 1000 nM	< 100 nM

Continued, values first:

IC50 (PIK3CB (Human))	IC50 (PIK3CG (human))	IC50 (PIK3CD (Human))	Structure (SMILES)
≥ 10000 nM	100 to 1000 nM	< 100 nM	CC(=O)Nc1cccc(-c2cccc3cc([C@H](C)NC(=O)c4c(N)nn5cccnc45)n(-c4ccccc4)c(=O)c23)c1
–	–	< 100 nM	C[C@H](NC(=O)c1cnc2cccnn12)c1cc2cccc(Cl)c2c(=O)n1-c1ccc(F)cc1
100 to 1000 nM	< 100 nM	< 100 nM	C[C@H](NC(=O)c1nc(-c2cccc(NS(C)(=O)=O)c2)cnc1N)c1cc2cccc(Cl)c2c(=O)n1-c1ccccc1
≥ 10000 nM	–	< 100 nM	COc1cc(-c2cccc3cc([C@H](C)NC(=O)c4c(N)nn5cccnc45)n(C)c(=O)c23)ccn1
100 to 1000 nM	< 100 nM	< 100 nM	C[C@H](NC(=O)c1nc(-c2cccc(NS(C)(=O)=O)c2)cnc1N)c1cc2cccc(Cl)c2c(=O)n1C1CC1
–	100 to 1000 nM	< 100 nM	C[C@H](NC(=O)c1c(N)nn2cccnc12)c1cc2cccc(C#CCNC(=O)C3CCCCC3)c2c(=O)n1-c1ccccc1
≥ 10000 nM	100 to 1000 nM	< 100 nM	COc1cc(-c2cccc3cc([C@H](C)NC(=O)c4c(N)nn5ccc(C)nc45)n(-c4ccccc4)c(=O)c23)ccn1
–	100 to 1000 nM	< 100 nM	C=CC(=O)NCCC#Cc1cccc2cc([C@H](C)NC(=O)c3c(N)nn4cccnc34)n(-c3ccccc3)c(=O)c12
–	100 to 1000 nM	< 100 nM	Cc1cccc2cc([C@H](C)NC(=O)c3c(N)nn4cccnc34)n(-c3ccccc3)c(=O)c12
≥ 10000 nM	100 to 1000 nM	< 100 nM	C[C@H](NC(=O)c1c(N)nn2cccnc12)c1cc2cccc(-c3cncs3)c2c(=O)n1-c1ccccc1
100 to 1000 nM	100 to 1000 nM	< 100 nM	CNS(=O)(=O)c1cccc(-c2cnc(N)c(C(=O)N[C@@H](C)c3cc4cccc(Cl)c4c(=O)n3-c3ccccc3)n2)c1
100 to 1000 nM	< 100 nM	< 100 nM	C[C@H](NC(=O)c1c(N)nn2cccnc12)c1cc2cccc(Cl)c2c(=O)n1-c1ccc(F)cc1
–	< 100 nM	< 100 nM	CC#Cc1cccc2cc([C@H](C)NC(=O)c3c(N)nn4cccnc34)n(-c3ccccc3)c(=O)c12
–	< 100 nM	< 100 nM	C[C@H](NC(=O)c1c(N)nn2cccnc12)c1cc2cccc(C#CCNC(=O)[C@H]3CCC(=O)O3)c2c(=O)n1-c1ccccc1
–	–	< 100 nM	C[C@H](NC(=O)c1cncc2cccnc12)c1cc2cccc(Cl)c2c(=O)n1-c1ccc(F)cc1
100 to 1000 nM	100 to 1000 nM	< 100 nM	CC(C)n1c([C@H](C)NC(=O)c2c(N)nn3cccnc23)cc2cccc(Cl)c2c1=O
≥ 10000 nM	100 to 1000 nM	< 100 nM	C[C@H](NC(=O)c1c(N)nn2cccnc12)c1cc2cccc(-c3ccncc3)c2c(=O)n1-c1ccccc1
–	–	< 100 nM	C[C@H](NC(=O)c1c(N)nn2cccnc12)c1cc2cccc(Cl)c2c(=O)n1C1CCCCC1
100 to 1000 nM	100 to 1000 nM	< 100 nM	CC(C)NS(=O)(=O)c1cccc(-c2cnc(N)c(C(=O)N[C@@H](C)c3cc4cccc(Cl)c4c(=O)n3-c3ccccc3)n2)c1
–	100 to 1000 nM	< 100 nM	COc1cc(-c2cccc3cc([C@H](C)NC(=O)c4c(N)nn5cccnc45)n(-c4ccccc4)c(=O)c23)ccn1
–	100 to 1000 nM	< 100 nM	C[C@H](NC(=O)c1nc(-c2cn[nH]c2)cnc1N)c1cc2cccc(Cl)c2c(=O)n1-c1ccccc1
100 to 1000 nM	100 to 1000 nM	< 100 nM	Cc1cc(C)n2nc(N)c(C(=O)N[C@@H](C)c3cc4cccc(Cl)c4c(=O)n3-c3ccccc3)c2n1
